Assay: xn = mol fraction of the nth substance listed

CCCCC(CC)COP(=O)(O)OCC(CC)CCCC (centres undefined) + CCCCO
303.15 K, 101 kPa
Conditions	viscosity [mPa·s]
x1 = 0.0419	2.97
x1 = 0.0842	3.693
x1 = 0.1206	4.321
x1 = 0.2162	6.156
x1 = 0.3122	8.132
x1 = 0.4528	11.18
x1 = 0.5519	12.85
x1 = 0.6567	14.57
x1 = 0.761	16.12
x1 = 0.8628	17.52
x1 = 0.9345	18.4

C[N+](=O)[O-] + CCCCO
viscosity [mPa·s], 101 kPa
Conditions	298.15 K	303.15 K	308.15 K	313.15 K	318.15 K	323.15 K
x1 = 0.1	–	1.815	1.607	1.438	1.283	1.156
x1 = 0.1589	1.93	–	–	–	–	–
x1 = 0.2	–	1.448	1.305	1.172	1.067	0.968
x1 = 0.299	1.499	–	–	–	–	–
x1 = 0.2999	–	1.218	1.107	0.996	0.906	0.828
x1 = 0.4	–	1.052	0.955	0.868	0.8	0.73
x1 = 0.4222	1.172	–	–	–	–	–
x1 = 0.5016	–	0.918	0.834	0.762	0.7	0.646
x1 = 0.5319	0.9681	–	–	–	–	–
x1 = 0.6017	–	0.802	0.73	0.672	0.622	0.578
x1 = 0.6302	0.8288	–	–	–	–	–
x1 = 0.6991	–	0.706	0.654	0.605	0.565	0.527
x1 = 0.7188	0.7435	–	–	–	–	–
x1 = 0.7993	0.6894	–	–	–	–	–
x1 = 0.8059	–	0.624	0.583	0.549	0.518	0.488
x1 = 0.8718	0.6557	–	–	–	–	–
x1 = 0.903	–	0.586	0.553	0.524	0.499	0.474
x1 = 0.9387	0.6378	–	–	–	–	–

O=Cc1ccco1 + CCCC[P+](C)(CCCC)CCCC.COS(=O)(=O)[O-]
viscosity [mPa·s], 100 kPa
Conditions	293.15 K	298.15 K	303.15 K	308.15 K	313.15 K	318.15 K	323.15 K
x2 = 0.062	2.53	–	–	–	–	–	–
x2 = 0.1	8.96	3.49	3.13	2.99	2.64	2.46	–
x2 = 0.142	–	–	4.13	3.99	3.64	3.46	–
x2 = 0.191	41.29	–	–	5.55	5.56	4.32	4.01
x2 = 0.249	64.53	30.58	–	–	–	–	–
x2 = 0.317	–	46.54	24.83	–	8.79	–	6.01
x2 = 0.399	–	72.22	39.81	–	–	9.92	–
x2 = 0.499	–	–	–	33.52	–	–	–
x2 = 0.624	270.6	–	–	58.28	–	32.22	26.66
x2 = 0.732	396.3	265.6	–	133.5	–	81.46	73.46
x2 = 0.823	501.6	350.8	255.5	–	–	116.5	99.45
x2 = 0.863	555	392.6	287.1	–	–	–	–
x2 = 0.91	614.7	435.6	319.2	–	–	–	–
x2 = 0.951	664.4	475.8	351.2	265.8	–	158.5	–

CCCCC(CC)COP(=O)(O)OCC(CC)CCCC (centres undefined) + CCCO
303.15 K, 101 kPa
Conditions	viscosity [mPa·s]
x1 = 0.0388	2.397
x1 = 0.0845	3.204
x1 = 0.1765	4.994
x1 = 0.2522	6.571
x1 = 0.3449	8.647
x1 = 0.4687	11.29
x1 = 0.6123	13.8
x1 = 0.7274	15.62
x1 = 0.8109	16.82
x1 = 0.9261	18.45

CCCCOC(=O)C(C)O (centres undefined) + CCCO
101 kPa, x1 = 0.8998
Conditions	viscosity [mPa·s]
303.15 K	2.685
313.15 K	2.075

C[N+](=O)[O-] + CCCO
viscosity [mPa·s]
Conditions	293.15 K	298.15 K	303.15 K	313.15 K
101 kPa, x1 = 0.1338	–	1.55	–	–
101 kPa, x1 = 0.2584	–	1.24	–	–
101 kPa, x1 = 0.3737	–	1.011	–	–
101 kPa, x1 = 0.4815	–	0.8394	–	–
101 kPa, x1 = 0.5819	–	0.7389	–	–
101 kPa, x1 = 0.6764	–	0.6772	–	–
101 kPa, x1 = 0.7649	–	0.6555	–	–
101 kPa, x1 = 0.8479	–	0.6441	–	–
101 kPa, x1 = 0.9262	–	0.6388	–	–
101.33 kPa, x2 = 0.0501	0.636	–	0.565	0.508
101.33 kPa, x2 = 0.1001	0.633	–	0.56	0.501
101.33 kPa, x2 = 0.1501	0.64	–	0.563	0.502
101.33 kPa, x2 = 0.2	0.656	–	0.574	0.508
101.33 kPa, x2 = 0.25	0.681	–	0.591	0.519
101.33 kPa, x2 = 0.3001	0.713	–	0.612	0.534
101.33 kPa, x2 = 0.3501	0.753	–	0.639	0.553
101.33 kPa, x2 = 0.4001	0.795	–	0.67	0.576
101.33 kPa, x2 = 0.45	0.843	–	0.704	0.6
101.33 kPa, x2 = 0.5	0.892	–	0.74	0.629
101.33 kPa, x2 = 0.5501	0.949	–	0.785	0.661
101.33 kPa, x2 = 0.6001	1.01	–	0.832	0.697
101.33 kPa, x2 = 0.65	1.081	–	0.886	0.739
101.33 kPa, x2 = 0.7	1.162	–	0.95	0.789
101.33 kPa, x2 = 0.75	1.26	–	1.023	0.845
101.33 kPa, x2 = 0.8	1.375	–	1.112	0.912
101.33 kPa, x2 = 0.85	1.519	–	1.218	0.993
101.33 kPa, x2 = 0.9	1.693	–	1.349	1.094
101.33 kPa, x2 = 0.95	1.911	–	1.51	1.214
